No end group written: not given here.
Key:
[1] = system: human T cells; test: Secretion of TNF-α and IFN-γ from proliferating T cells; format: cell-based; conditions: peptide 1 to 100 pg/ml; not shown
[2] = system: human T cells; test: T cell chemotaxis through FN-coated polycarbonate membranes; format: cell-based; conditions: peptide 1 pg/ml, FN-coated membrane; for inhibition of T cell migration toward IL-2: IL-2 10 U/ml in lower compartment, p<0.01; for inhibition of T cell chemotaxis toward MIP-1β: MIP-1β in lower compartment
Description: T cell migration towards the chemotactic sources was assessed after 2 hr. One experiment representative of four.
Chemotaxis assays. T cell chemotaxis was performed and analyzed as previously described (Ben-Baruch et al., 1997). Briefly, the migration of human T cells (0.5×10^6 cells in adhesion medium/well) was examined in a 48-well chemotaxis micro-chamber (Neuro-Probe Inc., Cabin John, M D). The two compartments of the micro-chambers were separated by a FN-coated polycarbonate filter (5 μm pore size; Osmonics Protein Products, Livemore, Calif.). […] After incubation (120 min, 37° C., in a humidified, 7.5% CO2 atmosphere); the filters were removed, fixed, and stained with a Diff-Quik staining kit Dade, Düdingen, Switzerland). The number of migrating T cells in five high-power fields (under 500× magnification; WILD Microscope, Heerbrugg, Switzerland) was evaluated. For each group, the results are expressed as the mean number of cells in one high-power field.
Immune cell migration is the outcome of a subtle biological equilibrium existing between adhesion and detachment events. Lymphocyte adhesion to the subendothelial ECM and subsequent migration are two active processes that can overlap, but are not mutually dependent events. Adhesion and migration may depend on the ability of the T cells to continuously integrate different pro- and anti-adhesive signals via their versatile receptors for ECM, chemokines, cytokines, and possibly, also antigenic moieties.

[3] = system: HT-29 cells; test: Spontaneous IL-8 secretion from intestinal epithelial cells (ELISA); format: cell-based, human; set-up: IL-8 secretion Average O.D.: scale not given here; conditions: peptide 1 nM, 24 h at 37° C.; for IL-8 secretion Average O.D.: ELISA O.D. at 405 nm, medium alone 488 ± 8.5, background 71 ± 1.4; for IL-8 secretion % inhibition: spontaneous secretion
Description: Human colonic epithelial cell lines HT-29 (ATCC HTB38) and Caco-2 (ATCC […]) were obtained from the American Type Culture Collection (ATTC, Rockville, Md.). Cells were maintained in culture medium (DMEM supplemented with 10% cosmic calf serum (CSS), 2 mM glutamine, 100 U/ml penicillin, and 0.1 mg/ml streptomycin), at 37° C. and atmosphere of 5%, CO2. Cell viability was assessed using the standard MTT method.
Spontaneous or cytokine-induced secretion of IL-8 or IL-1β from intestinal epithelial cell. Test cells (HT-29 or Caco-2) were grown as confluent monolayers in 24-well tissue culture plates. […] When TNF-α was used, the peptides were added to the cells 1 hour prior to the addition of TNF-α. Following culture, the supernatants were harvested and analyzed for IL-8 or IL-1β secretion by ELISA using commercially available kits for IL-8 (Pharmingen) and IL-1β (Genzyme), according to the manufacturers' protocols.
The results in Table 1 show the O.D. readings of the ELISA assay (at 405 nm) as well as the percentage of inhibition of IL-8 secretion.

[4] = system: human T cells; test: IL-2-induced T cell adhesion to fibronectin (FN); format: cell-based; conditions: for concentration giving maximum inhibition of IL-2-induced T cell adhesion to FN / concentration giving maximum inhibition of IL-2-induced T cell adhesion to FN (molar) / inhibition of adhesion of IL-2-activated T cells to FN: IL-2 10 U/ml; for inhibition of adhesion of IL-2-activated T cells to FN: 30 min at 37° C., dose range; for anti-adhesive effect after removal of peptide prior to IL-2 activation: T cells pre-treated 1 pg/ml, washed, then IL-2 and FN-coated wells
Description: (§1) T cell adhesion assays. Human T cells were purified from the peripheral blood of healthy donors, and T cell adhesion to immobilized protein substrates was examined as follows: Human leukocytes were isolated on a Ficoll gradient, washed, and incubated (2 h, 37° C., 7.5% CO2, humidified atmosphere) on petri dishes. The non-adherent cells were then collected and incubated (1 h, 37° C., 7.5% CO2, humidified atmosphere) on nylon wool columns (Novamed Ltd., Jerusalem, Israel). Unbound cells were eluted from the columns by extensive washings. The resulting cell population was always >92% T cells. […] After 4-6 h at 37° C., the wells were washed and ^51[Cr]-labeled T cells were added to the wells, 10^5 cells/100 μl of adhesion medium (RPMI-1640 supplemented with 0.1% BSA, 1% sodium pyruvate, 1% HEPES buffer). The microtiter plates containing the cells were incubated (30 min, 37° C.) in a humidified, 7.5% CO2 atmosphere, and then washed. The adherent cells were lysed, and the resulting supernatants were removed and analyzed in a γ-counter. For each experimental group, the results were expressed as the mean percentage ±SD of bound T cells from quadruplicate wells.
The effect of synthetic peptides, with putative amino acid compositions corresponding to fractions 2 and 8, on IL-2-induced T cell adhesion to FN. […] These three peptides were synthesized, and their effects on IL-2-induced T cell adhesion to FN were studied. […] The inhibitory dose-response curves of Ile-Val-Leu and […](SEQ ID NO:1) are similar to those of the HPLC fractions 2 and 8, respectively, from which they were derived. […]

[5] = system: human T cells; test: T cell adhesion to FN induced by various activators; format: cell-based; conditions: for inhibition of T cell adhesion to FN induced by various stimulators: peptide 10 pg/ml, IL-2, IL-7, MIP-1β, PMA, 8A2 mAb, anti-CD3 mAb
Description: FIGS. 7A-7B show inhibition by pep2 (FIG. 7A) and pep1 (FIG. 7B) of T cell adhesion to FN, induced by various activators. […] (1 μg/ml), or anti-human CD3 mAb (1 μg/ml). The IL-2-derived peptides, pep1 or pep2, were also present in some wells. After 30 min at 37° C., non-adherent T cells were removed by washing, the remaining adherent cells were lysed, and the percentage of T cells that had adhered was determined. One experiment representative of four.
as §1
Inhibition by the Ile-Val-Leu and […](SEQ ID NO:1) peptides of T cell adhesion to FN induced by various pro-inflammatory mediators and by mAb specific for molecules expressed on T cells.

Glu-Phe-Leu-Asn-Arg-Trp-Ile-Thr (EFLNRWIT; not fully specified (C-terminus); printed as Glu-Phe-Leu-Asn-Arg-Trp-Ile-Thr) [pep2]
inhibition of secretion of TNF-α and IFN-γ from proliferating T cells [1]: nor did these peptides inhibit the secretion of TNF-α and IFN-γ
inhibition of T cell migration toward IL-2 [2]: ~60%
inhibition of T cell chemotaxis toward MIP-1β [2]: only a limited inhibitory effect
IL-8 secretion Average O.D. [3]: 36 ± 4.2
IL-8 secretion % inhibition [3]: 108%
concentration giving maximum inhibition of IL-2-induced T cell adhesion to FN [4]: 1 pg/mL
concentration giving maximum inhibition of IL-2-induced T cell adhesion to FN (molar) [4]: 0.92 pM
inhibition of adhesion of IL-2-activated T cells to FN [4]: inhibited, in a dose-dependent manner
anti-adhesive effect after removal of peptide prior to IL-2 activation [4]: most of the anti-adhesive effects of the three peptides persevered
inhibition of 8A2-induced T cell adhesion to FN ([5]; peptide 0.1 pg/ml): did not inhibit
inhibition of PMA-induced T cell adhesion to FN ([5]; peptide 0.1 pg/ml): did not inhibit
inhibition of T cell adhesion to FN induced by various stimulators [5]: inhibited T cell adhesion to FN

Ile-Val-Leu [pep1]
inhibition of secretion of TNF-α and IFN-γ from proliferating T cells [1]: nor did these peptides inhibit the secretion of TNF-α and IFN-γ
inhibition of T cell migration toward IL-2 [2]: about 30%
inhibition of T cell chemotaxis toward MIP-1β [2]: 80%
IL-8 secretion Average O.D. [3]: 54 ± 19.1
IL-8 secretion % inhibition [3]: 104%
concentration giving maximum inhibition of IL-2-induced T cell adhesion to FN [4]: 1 pg/mL
concentration giving maximum inhibition of IL-2-induced T cell adhesion to FN (molar) [4]: 2.91 pM
inhibition of adhesion of IL-2-activated T cells to FN [4]: inhibited, in a dose-dependent manner
anti-adhesive effect after removal of peptide prior to IL-2 activation [4]: most of the anti-adhesive effects of the three peptides persevered
inhibition of 8A2-induced T cell adhesion to FN ([5]; peptide 0.1 pg/ml): did not inhibit
inhibition of PMA-induced T cell adhesion to FN ([5]; peptide 0.1 pg/ml): did not inhibit
inhibition of anti-CD3 mAb-induced T cell adhesion to FN ([5]; peptide 0.1 pg/ml): did not inhibit
inhibition of T cell adhesion to FN induced by various stimulators [5]: inhibited T cell adhesion to FN
